One molecule from article PMC6474360 (Biochemistry, 2018) can be followed below.

What all share (type): binding
The target of test [1] is sperm whale myoglobin (ferric Mb^III), wild-type (Physeter macrocephalus, UniProt P02185, D123N). Nature of the test: UV-vis titration.
In test [2] the target is sperm whale myoglobin (ferric Mb^III), H64A mutant (Physeter macrocephalus, UniProt P02185, D123N/H65A). Briefly: X-ray crystal structure.
Test [3] addresses sperm whale myoglobin (ferrous Mb^II), H64Q mutant (Physeter macrocephalus, UniProt P02185, D123N/H65Q). Nature of the test: UV-vis titration.
Test [4] concerns the target sperm whale myoglobin (ferrous Mb^II), V68A/I107Y mutant (Physeter macrocephalus, UniProt P02185, D123N/I108Y/V69A). Briefly: UV-vis titration.

Sequence of sperm whale myoglobin (ferrous Mb^II), H64Q mutant (P02185 whole entry H65Q/D123N): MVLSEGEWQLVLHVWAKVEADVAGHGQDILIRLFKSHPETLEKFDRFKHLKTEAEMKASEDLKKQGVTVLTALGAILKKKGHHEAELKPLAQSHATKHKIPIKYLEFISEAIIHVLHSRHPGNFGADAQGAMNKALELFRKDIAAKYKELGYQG
Sequence of sperm whale myoglobin (ferric Mb^III), H64A mutant (P02185 whole entry H65A/D123N): as the sequence (P02185 whole entry H65Q/D123N) above, with Q65A counted along it
Sequence of sperm whale myoglobin (ferric Mb^III), wild-type (P02185 whole entry D123N): as the sequence (P02185 whole entry H65Q/D123N) above, with Q65H counted along it
Sequence of sperm whale myoglobin (ferrous Mb^II), V68A/I107Y mutant (P02185 whole entry V69A/I108Y/D123N): as the sequence (P02185 whole entry H65Q/D123N) above, with Q65H, V69A, I108Y counted along it

Turning to `O=NO` [nitrite], the dissociation constant Kd (in general, the constant that tells how readily two partners part at equilibrium) was 12.2 ± 2.2 mM in test [1], > 20 mM in test [2], 1.45 ± 0.3 mM in test [3] and 19.4 ± 0.6 mM in test [4].
